According to article PMC3250963, “Novel dimeric DOTA-coupled peptidic Y1-receptor antagonists for targeting of neuropeptide Y receptor-expressing cancers” (EJNMMI Research, 2011):
Bridge positions count the residues as written; N and C are the ends. Square brackets hold non-standard residues; d marks the D form. Peptide text beside a SMILES is read from it. I, II: the chains in the order shown. * marks the point of attachment. DOTA = O=C(O)CN1CCN(CC(=O)O)CCN(CC(=O)*)CCN(CC(=O)O)CC1; Nle = CCCC[C@H](N)C(=O)O; Dap = NC[C@H](N)C(=O)O

Key:
NPY Y2 receptor = target: T1, NPY Y2 receptor (Homo sapiens, UniProt P49146); assay: Receptor autoradiography competition binding (125I-hPYY) on SH-SY5Y cell membrane pellet sections; conditions: SH-SY5Y membrane pellets, 125I-hPYY displacement; n ≥ 3; read-out: Binding affinity Y2 (IC50)
T1 construct: SH-SY5Y cells endogenously expressing Y2; endogenous in cells; host or cells: SH-SY5Y
T1 sequence (P49146 1-381): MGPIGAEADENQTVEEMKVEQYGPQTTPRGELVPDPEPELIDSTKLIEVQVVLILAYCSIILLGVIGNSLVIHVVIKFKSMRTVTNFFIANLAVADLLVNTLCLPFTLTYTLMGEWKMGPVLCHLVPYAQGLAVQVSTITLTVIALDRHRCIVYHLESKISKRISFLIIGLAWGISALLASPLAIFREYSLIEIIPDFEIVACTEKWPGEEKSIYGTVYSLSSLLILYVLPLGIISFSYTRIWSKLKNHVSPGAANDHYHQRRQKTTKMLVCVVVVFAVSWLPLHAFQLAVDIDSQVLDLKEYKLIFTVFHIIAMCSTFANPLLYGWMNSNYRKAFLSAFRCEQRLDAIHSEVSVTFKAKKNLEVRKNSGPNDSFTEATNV
Description: (§1) The neuroepithelioma cell line SK-N-MC endogenously expressing the NPY Y1 receptor was obtained from ATCC (HTB-10; LGC Standards, Teddington, Middlesex, UK) and cultured at 37°C and 5% CO2 in MEM with GlutaMax I and supplemented with 10% FBS, 100 U/ml penicillin and 100 μg/ml streptomycin, 1 mM MEM sodium pyruvate, and MEM non-essential amino acids (× 1). The neuroblastoma cell line SH-SY5Y endogenously expressing the NPY Y2 receptor, kindly provided by Dr. Paolo Paganetti (Novartis, Basel, Switzerland), was cultured at 37°C and 5% CO2 in MEM/Ham's F12 with GlutaMax I and supplemented with 10% FBS, 100 U/ml penicillin and 100 μg/ml streptomycin, 1 mM MEM sodium pyruvate, and MEM non-essential amino acids (× 1). All culture reagents were from Gibco BRL, Life Technologies, (Grand Island, NY, USA).
(§2) Binding affinities of the compounds were assessed using sections of cell membrane pellets of SK-N-MC for Y1 or SH-SY5Y for Y2, as described before. Briefly, membrane pellets were prepared and stored at -80°C, and receptor autoradiography was performed on 20-μm-thick cryostat (Microm HM 500, Walldorf, Germany) sections of the membrane pellets, mounted on microscope slides and stored at -20°C as previously described for other cell lines and receptors. The slides were preincubated in Krebs-Ringer solution (NaCl 119 mM, KCl 3.2 mM, KH2PO4 1.19 mM, MgSO4 1.19 mM, NaHCO3 25 mM, CaCl2 2.53 mM, D-glucose 10 mM; pH 7.4) for 60 min at room temperature. Then, they were incubated for 120 min in the incubation solution containing the Krebs-Ringer solution, 0.1% BSA, 0.05% bacitracin, and 10,000 cpm/100 μl of the ^125I-labeled human PYY (hPYY; 2,000 Ci/mmol; Anawa, Wangen, Switzerland). Membrane pellet sections were incubated with ^125I-hPYY in increasing concentrations ranging from 0.1 nM up to 1,000 nM of non-labeled hPYY, as control, or with the compounds to be tested. After the incubation, the slides were washed two times for 5 min and then rinsed four times in ice-cold preincubation solution. After drying, the slides were exposed to Kodak films Biomax MR® for 7 days. IC50 values were calculated after quantification of the data using a computer-assisted image processing system (Analysis Imaging System, Interfocus, Mering, Germany). Tissue standards (autoradiographic [^125I] and/or [^14C] microscales, GE Healthcare, Little Chalfont, UK) containing a known amount of isotope, cross-calibrated to tissue-equivalent ligand concentrations were used for quantification.

NPY Y1 receptor = target: T2, NPY Y1 receptor (Homo sapiens, UniProt P25929); assay: Receptor autoradiography competition binding (125I-hPYY) on SK-N-MC cell membrane pellet sections; conditions: for IC50: SK-N-MC membrane pellets, 125I-hPYY displacement, mean ± SEM, n ≥ 3, read-out: Binding affinity Y1 (IC50)
T2 construct: SK-N-MC cells endogenously expressing Y1; host or cells: SK-N-MC
T2 sequence (P25929 1-384): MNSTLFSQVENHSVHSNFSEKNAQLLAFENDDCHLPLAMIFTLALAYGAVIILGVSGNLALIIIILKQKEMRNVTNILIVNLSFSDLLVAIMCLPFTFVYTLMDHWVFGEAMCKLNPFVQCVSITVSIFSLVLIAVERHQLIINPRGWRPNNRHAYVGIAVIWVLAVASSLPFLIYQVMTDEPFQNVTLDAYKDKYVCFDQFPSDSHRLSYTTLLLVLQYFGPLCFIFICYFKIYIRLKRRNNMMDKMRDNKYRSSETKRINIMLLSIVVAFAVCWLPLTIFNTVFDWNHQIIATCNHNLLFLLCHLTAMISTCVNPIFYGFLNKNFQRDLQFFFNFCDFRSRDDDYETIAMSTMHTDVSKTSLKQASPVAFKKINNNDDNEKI
Description: as §1, §2

Compound | IC50 (NPY Y2 receptor) [µM] | IC50 (NPY Y1 receptor) [µM] | Y1 binding affinity in words (displacement of 125I-hPYY) (NPY Y1 receptor; SK-N-MC cell membrane pellet sections)
CC[C@H](C)[C@H](N)C(=O)N[C@@H](CC(N)=O)C(=O)N1CCC[C@H]1C(=O)N[C@@H](CSSC[C@H](NC(=O)[C@@H]1CCCN1C(=O)[C@H](CC(N)=O)NC(=O)[C@@H](N)[C@@H](C)CC)C(=O)N[C@@H](Cc1ccc(O)cc1)C(=O)N[C@@H](CCCNC(=N)N)C(=O)N[C@@H](CC(C)C)C(=O)N[C@@H](CCCNC(=N)N)C(=O)N[C@@H](Cc1ccc(O)cc1)C(N)=O)C(=O)N[C@@H](Cc1ccc(O)cc1)C(=O)N[C@@H](CCCNC(=N)N)C(=O)N[C@@H](CC(C)C)C(=O)N[C@@H](CCCNC(=N)N)C(=O)N[C@@H](Cc1ccc(O)cc1)C(N)=O [Analog 1, Bis(31/31')[Pro^30, Cys^31, Tyr^32, Leu^34]NPY(28-36)-NH2, reference compound] (I: H-INPCYRLRY-NH2 / II: H-INPCYRLRY-NH2; disulfide I:4-II:4) | > 1 | 0.011 ± 0.007 | –
CCCC[C@H](NC(=O)[C@H](CCCNC(=N)N)NC(=O)[C@H](Cc1c[nH]c2ccccc12)NC(=O)[C@H](CSSC[C@H](NC(=O)[C@@H]1CCCN1C(=O)[C@H](CC(N)=O)NC(=O)[C@@H](N)[C@@H](C)CC)C(=O)N[C@@H](Cc1c[nH]c2ccccc12)C(=O)N[C@@H](CCCNC(=N)N)C(=O)N[C@@H](CCCC)C(=O)N[C@@H](CCCNC(=N)N)C(=O)N[C@@H](Cc1ccc(O)cc1)C(N)=O)NC(=O)[C@@H]1CCCN1C(=O)[C@H](CC(N)=O)NC(=O)[C@@H](N)[C@@H](C)CC)C(=O)N[C@@H](CCCNC(=N)N)C(=O)N[C@@H](Cc1ccc(O)cc1)C(N)=O [Analog 3] (I: H-INPCWR[Nle]RY-NH2 / II: H-INPCWR[Nle]RY-NH2; disulfide I:4-II:4) | > 1 | 0.009 ± 0.003 | –
CCCC[C@H](NC(=O)[C@H](CCCNC(=N)N)NC(=O)[C@H](Cc1c[nH]c2ccccc12)NC(=O)[C@H](CSSC[C@H](NC(=O)[C@@H]1CCCN1C(=O)[C@H](CN)NC(=O)[C@@H](N)[C@@H](C)CC)C(=O)N[C@@H](Cc1c[nH]c2ccccc12)C(=O)N[C@@H](CCCNC(=N)N)C(=O)N[C@@H](CCCC)C(=O)N[C@@H](CCCNC(=N)N)C(=O)N[C@@H](Cc1ccc(O)cc1)C(N)=O)NC(=O)[C@@H]1CCCN1C(=O)[C@H](CN)NC(=O)[C@@H](N)[C@@H](C)CC)C(=O)N[C@@H](CCCNC(=N)N)C(=O)N[C@@H](Cc1ccc(O)cc1)C(N)=O [Analog 5] (I: H-I[Dap]PCWR[Nle]RY-NH2 / II: H-I[Dap]PCWR[Nle]RY-NH2; disulfide I:4-II:4) | > 1 | 0.143 ± 0.02 | –
CCCC[C@H](NC(=O)[C@H](CCCNC(=N)N)NC(=O)[C@H](Cc1c[nH]c2ccccc12)NC(=O)[C@H](CSSC[C@H](NC(=O)[C@@H]1CCCN1C(=O)[C@H](CC(N)=O)NC(=O)[C@@H](N)[C@@H](C)CC)C(=O)N[C@@H](Cc1c[nH]c2ccccc12)C(=O)N[C@@H](CCCNC(=N)N)C(=O)N[C@@H](CCCC)C(=O)N[C@@H](CCCNC(=N)N)C(=O)N[C@@H](Cc1ccc(O)cc1)C(N)=O)NC(=O)[C@@H]1CCCN1C(=O)[C@H](CN)NC(=O)[C@@H](N)[C@@H](C)CC)C(=O)N[C@@H](CCCNC(=N)N)C(=O)N[C@@H](Cc1ccc(O)cc1)C(N)=O [Analog 7] (I: H-I[Dap]PCWR[Nle]RY-NH2 / II: H-INPCWR[Nle]RY-NH2; disulfide I:4-II:4) | > 1 | 0.019 ± 0.005 | –
hPYY: non-labeled human peptide YY, used as control in the binding assay [reference compound] | – | – | high-affinity displacements of ^125I-hPYY

The next lines start with results.

IC50 (NPY Y2 receptor) [µM] | IC50 (NPY Y1 receptor) [µM] | Compound | Y1 binding affinity in words (displacement of 125I-hPYY) (NPY Y1 receptor; SK-N-MC cell membrane pellet sections)
> 1 | 0.143 ± 0.037 | CC[C@H](C)[C@H](NC(=O)CN1CCN(CC(=O)O)CCN(CC(=O)O)CCN(CC(=O)O)CC1)C(=O)N[C@@H](CC(N)=O)C(=O)N1CCC[C@H]1C(=O)N[C@@H](CSSC[C@H](NC(=O)[C@@H]1CCCN1C(=O)[C@H](CC(N)=O)NC(=O)[C@@H](NC(=O)CN1CCN(CC(=O)O)CCN(CC(=O)O)CCN(CC(=O)O)CC1)[C@@H](C)CC)C(=O)N[C@@H](Cc1ccc(O)cc1)C(=O)N[C@@H](CCCNC(=N)N)C(=O)N[C@@H](CC(C)C)C(=O)N[C@@H](CCCNC(=N)N)C(=O)N[C@@H](Cc1ccc(O)cc1)C(N)=O)C(=O)N[C@@H](Cc1ccc(O)cc1)C(=O)N[C@@H](CCCNC(=N)N)C(=O)N[C@@H](CC(C)C)C(=O)N[C@@H](CCCNC(=N)N)C(=O)N[C@@H](Cc1ccc(O)cc1)C(N)=O [Analog 2] (I: {DOTA}-INPCYRLRY-NH2 / II: {DOTA}-INPCYRLRY-NH2; disulfide I:4-II:4) | –
> 1 | 0.294 ± 0.033 | CCCC[C@H](NC(=O)[C@H](CCCNC(=N)N)NC(=O)[C@H](Cc1c[nH]c2ccccc12)NC(=O)[C@H](CSSC[C@H](NC(=O)[C@@H]1CCCN1C(=O)[C@H](CC(N)=O)NC(=O)[C@@H](NC(=O)CN1CCN(CC(=O)O)CCN(CC(=O)O)CCN(CC(=O)O)CC1)[C@@H](C)CC)C(=O)N[C@@H](Cc1c[nH]c2ccccc12)C(=O)N[C@@H](CCCNC(=N)N)C(=O)N[C@@H](CCCC)C(=O)N[C@@H](CCCNC(=N)N)C(=O)N[C@@H](Cc1ccc(O)cc1)C(N)=O)NC(=O)[C@@H]1CCCN1C(=O)[C@H](CC(N)=O)NC(=O)[C@@H](NC(=O)CN1CCN(CC(=O)O)CCN(CC(=O)O)CCN(CC(=O)O)CC1)[C@@H](C)CC)C(=O)N[C@@H](CCCNC(=N)N)C(=O)N[C@@H](Cc1ccc(O)cc1)C(N)=O [Analog 4] (I: {DOTA}-INPCWR[Nle]RY-NH2 / II: {DOTA}-INPCWR[Nle]RY-NH2; disulfide I:4-II:4) | –
> 1 | > 1 | CCCC[C@H](NC(=O)[C@H](CCCNC(=N)N)NC(=O)[C@H](Cc1c[nH]c2ccccc12)NC(=O)[C@H](CSSC[C@H](NC(=O)[C@@H]1CCCN1C(=O)[C@H](CNC(=O)CN1CCN(CC(=O)O)CCN(CC(=O)O)CCN(CC(=O)O)CC1)NC(=O)[C@@H](N)[C@@H](C)CC)C(=O)N[C@@H](Cc1c[nH]c2ccccc12)C(=O)N[C@@H](CCCNC(=N)N)C(=O)N[C@@H](CCCC)C(=O)N[C@@H](CCCNC(=N)N)C(=O)N[C@@H](Cc1ccc(O)cc1)C(N)=O)NC(=O)[C@@H]1CCCN1C(=O)[C@H](CNC(=O)CN1CCN(CC(=O)O)CCN(CC(=O)O)CCN(CC(=O)O)CC1)NC(=O)[C@@H](N)[C@@H](C)CC)C(=O)N[C@@H](CCCNC(=N)N)C(=O)N[C@@H](Cc1ccc(O)cc1)C(N)=O [Analog 6] (I: H-I[Dap](DOTA)PCWR[Nle]RY-NH2 / II: H-I[Dap](DOTA)PCWR[Nle]RY-NH2; disulfide I:4-II:4) | –
